≈ marks a conversion by molar mass, not a printed value.
Tests used:
[1] = test system: E. coli NIHJ; experiment: MIC, dilution method on plate culture (heart infusion agar); assay type: cell-based; details: Escherichia coli, 10^6/ml bacteria, 37° C., 18 hours, read-out: Minimum Inhibitory Concentration (MIC)
Protocol: (§1) Thus, these compounds are very useful anti-bacterial agents. The anti-bacterial activity (in vitro) and the acute toxicity (LD50) of the compounds of this invention are shown in the following Table in comparison with known oxolinic acid.
(§2) *Determined by the standard method of Japan Society of Chemotherapy:
(§3) dilution method on plate culture (heart infusion agar culture), 10^6
(§4) /ml of bacteria were seeded and incubated at 37° C. for 18 hours.

[2] = test system: Ent. cloacae 12001; experiment: as above; assay type: cell-based; details: Enterobacter cloacae, 10^6/ml bacteria, 37° C., 18 hours, read-out: Minimum Inhibitory Concentration (MIC)
Protocol: as §1, §2, §3, §4

[3] = test system: K. pneumoniae, Type 1; experiment: as above; assay type: cell-based; details: Klebsiella pneumoniae, TYPE1, 10^6/ml bacteria, 37° C., 18 hours, read-out: Minimum Inhibitory Concentration (MIC)
Protocol: as §1, §2, §3, §4

[4] = test system: Ps. aeruginosa 2063; experiment: as above; assay type: cell-based; details: Pseudomonas aeruginosa, 10^6/ml bacteria, 37° C., 18 hours, read-out: Minimum Inhibitory Concentration (MIC)
Protocol: as §1, §2, §3, §4

[5] = test system: S. aureus; experiment: as above; assay type: cell-based; details: Staphylococcus aureus, 10^6/ml bacteria, 37° C., 18 hours, read-out: Minimum Inhibitory Concentration (MIC)
Protocol: as §1, §2, §3, §4

[6] = test system: Ser. marcescens 13014; experiment: as above; assay type: cell-based; details: Serratia marcescens, 10^6/ml bacteria, 37° C., 18 hours, read-out: Minimum Inhibitory Concentration (MIC)
Protocol: as §1, §2, §3, §4

[7] = test system: Pr. mirabilis; experiment: as above; assay type: cell-based; details: Proteus mirabilis, 10^6/ml bacteria, 37° C., 18 hours, read-out: Minimum Inhibitory Concentration (MIC)
Protocol: as §1, §2, §3, §4

[8] = test system: Pr. vulgaris; experiment: as above; assay type: cell-based; details: Proteus vulgaris, 10^6/ml bacteria, 37° C., 18 hours, read-out: Minimum Inhibitory Concentration (MIC)
Protocol: as §1, §2, §3, §4

[9] = acute toxicity (LD50); details: mouse, in vivo, iv; mice i.v.
From the text: as §1

## CCn1cc(C(=O)O)c(=O)c2cc3c(cc21)OCO3 [Oxolinic Acid, 5-ethyl-5,8-dihydro-8-oxo-1,3-dioxolo[4,5-g]quinoline-7-carboxylic acid, reference compound]
[1]
  MIC: ≤ 0.2 µg/mL
[2]
  MIC: 0.8 µg/mL (≈ 3.06 µM)
[3]
  MIC: 3.1 µg/mL (≈ 11.9 µM)
[4]
  MIC: 25 µg/mL (≈ 95.7 µM)
[5]
  MIC: 3.1 µg/mL (≈ 11.9 µM)
[6]
  MIC: 0.8 µg/mL (≈ 3.06 µM)

## CCn1cc(C(=O)O)c(=O)c2cc3occc3nc21 [Compound Ia, 5,8-dihydro-5-ethyl-8-oxofuro[3,2-b]-1,8-naphthyridine-7-carboxylic acid]
[1]
  MIC: ≤ 0.2 µg/mL
[2]
  MIC: 0.4 µg/mL (≈ 1.55 µM)
[3]
  MIC: 1.6 µg/mL (≈ 6.2 µM)
[7]
  MIC: ≤ 0.2 µg/mL
[8]
  MIC: ≤ 0.2 µg/mL
[4]
  MIC: 3.1 µg/mL (≈ 12 µM)
[5]
  MIC: 3.1 µg/mL (≈ 12 µM)
[6]
  MIC: 0.4 µg/mL (≈ 1.55 µM)
[9]
  LD50: 221 mg/kg

## CCn1cc(C(=O)O)c(=O)c2cc3c(nc21)CCO3 [Compound Ib, 5-ethyl-8-oxo-2,3,5,8-tetrahydrofuro[3,2-b]-1,8-naphthyridine-7-carboxylicacid]
[1]
  MIC: ≤ 0.2 µg/mL
[2]
  MIC: ≤ 0.2 µg/mL
[3]
  MIC: 0.8 µg/mL (≈ 3.07 µM)
[7]
  MIC: ≤ 0.2 µg/mL
[8]
  MIC: ≤ 0.2 µg/mL
[4]
  MIC: 6.3 µg/mL (≈ 24.2 µM)
[5]
  MIC: 3.1 µg/mL (≈ 11.9 µM)
[6]
  MIC: ≤ 0.2 µg/mL
[9]
  LD50: 376 mg/kg

— patent publication US4293695A, “Furonaphthyridine compounds” (Daiichi Seiyaku Co., Ltd., priority 1978, dated 1981)
